Results from US20060188898A1, “Markers for roscovitine” (Cyclacel Limited, priority 2003, published 2006).

What was measured:
[1] = target: CDK7 (Homo sapiens, UniProt P50613); settings: cited from earlier work
[2] = system: cell cycle progression; settings: cited from earlier work
[3] = system: HT29 colon cancer cells; assay: cDNA microarray analysis of mRNA expression in treated HT29 cells; type: cell-based
Description: Total RNA was extracted from cell pellets using TriZol (Life Technologies) and mRNA was purified using the Qiagen Oligotex system. mRNA from control and treated cells was labelled with either Cy3 or Cy5 (NEN or Amersham) fluorescent dCTPs respectively, creating cDNA probes. cDNA microarray slides are made and used as described in Eisen, MB and Brown PO. (1999) DNA Arrays for Analysis of Gene Expression. Methods in Enzymology 303:179-205.
The cDNA probes were then hybridised to the cDNA microarray slides overnight and then washed and scanned using an Axon Labs GenePix 4000B scanner. The slides were verified using GenePix software and normalised prior to analysis in GeneSpring.
A 2 fold cut-off was used to assign significance to a change in mRNA expression. Therefore, any mRNA with a normalised ratio of medians less than 0.5 (FIGS. 1, 3, 5 and 7) or greater than 2 (FIGS. 2, 4, 6 and 8) is deemed significant.

[4] = target: CDK9 (Homo sapiens, UniProt P50750); settings: cited from earlier work
Chain of CDK9 (P50750 whole entry, species assumed): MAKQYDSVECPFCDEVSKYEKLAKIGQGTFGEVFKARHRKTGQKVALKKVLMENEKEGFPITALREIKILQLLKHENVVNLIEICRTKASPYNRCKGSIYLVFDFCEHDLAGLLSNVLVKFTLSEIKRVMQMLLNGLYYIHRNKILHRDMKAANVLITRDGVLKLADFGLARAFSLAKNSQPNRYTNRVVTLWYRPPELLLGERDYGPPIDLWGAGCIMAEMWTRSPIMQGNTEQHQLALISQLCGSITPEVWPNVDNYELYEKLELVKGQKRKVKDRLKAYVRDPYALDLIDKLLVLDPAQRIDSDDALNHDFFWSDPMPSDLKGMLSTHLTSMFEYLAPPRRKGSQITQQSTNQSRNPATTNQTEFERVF
Chain of CDK9 (O60563 whole entry partner, species assumed): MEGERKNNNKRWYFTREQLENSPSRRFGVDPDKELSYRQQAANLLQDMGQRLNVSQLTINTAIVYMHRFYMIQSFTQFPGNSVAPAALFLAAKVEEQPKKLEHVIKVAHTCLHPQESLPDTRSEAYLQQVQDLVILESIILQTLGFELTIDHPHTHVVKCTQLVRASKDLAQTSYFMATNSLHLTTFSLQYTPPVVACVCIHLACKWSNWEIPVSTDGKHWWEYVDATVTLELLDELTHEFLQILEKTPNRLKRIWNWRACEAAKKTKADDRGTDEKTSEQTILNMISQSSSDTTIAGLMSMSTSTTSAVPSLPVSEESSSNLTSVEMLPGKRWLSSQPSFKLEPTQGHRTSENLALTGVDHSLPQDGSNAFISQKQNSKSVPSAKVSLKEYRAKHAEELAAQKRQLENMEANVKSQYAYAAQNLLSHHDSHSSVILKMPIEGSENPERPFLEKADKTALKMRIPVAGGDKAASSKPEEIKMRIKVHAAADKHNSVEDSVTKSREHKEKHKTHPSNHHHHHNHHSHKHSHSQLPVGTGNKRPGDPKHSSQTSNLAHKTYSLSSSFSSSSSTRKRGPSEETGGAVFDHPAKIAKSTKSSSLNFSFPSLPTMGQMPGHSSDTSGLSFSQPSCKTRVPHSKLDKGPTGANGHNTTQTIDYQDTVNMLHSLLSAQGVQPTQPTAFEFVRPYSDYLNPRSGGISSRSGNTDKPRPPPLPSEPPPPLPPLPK

[5] = system: HT29 colon cancer cells; assay: Western blotting of protein expression in treated HT29 cells
Description: HT29 colon cancer cells were seeded into T175 flasks at 3×10^6 cells per flask and allowed to attach for 48 h. […] A cell pellet was made for protein analysis and RNA analysis.
To harvest cells, the medium was removed and cells were incubated with 5 ml trypsin for 5 min at 37° C. to detach them from the plastic. The cells were then pelleted, washed in ice cold PBS and resuspended in ice cold lysis buffer containing 50 mM HEPES pH7.4, 250 mM NaCl, 0.1% NP40, 1 mM DTT, 1 mM EDTA, 1 mM NaF, 10 mM β-glycerophosphate, 0.1 mM sodium orthovanadate and 1 complete protease inhibitor cocktail tablet (Roche, East Sussex, UK) per 10 ml of lysis buffer for 30 minutes on ice. Lysates were centrifuged at approx. 18, 000×g for 10 minutes at 4° C. to remove cellular debris. The supernatant was stored at −80° C. prior to use. The protein concentration of lysates was determined using the BCA protein assay (Pierce, Rockford, USA). Proteins were separated by SDS-PAGE using Novex precast tris-glycine gels (Invitrogen, Groningen, The Netherlands) and transferred to Immobilon-P membranes (Millipore, Bedford, USA). Membranes were blocked for 1 hour in TBS™ 50 mM Tris pH7.5, 150 mM NaCl, 0.1% Tween 20 (Sigma, Dorset, UK) and 3% milk. Immunoblotting with primary antibodies diluted in TBS™ was performed at 4° C. overnight, followed by a 1 hour incubation with HRP-conjugated secondary antibodies at room temperature. Membranes were washed with ECL reagents and exposed to Hyperfilm (Amersham Pharmacia Biotech, Buckinghamshire, UK).

[6] = 50 μM CYC202, time course 4-48 h
[7] = 50 μM CYC202, time course 4-48 h, Western blot

Chain of CDK7 (P50613 whole entry, species assumed): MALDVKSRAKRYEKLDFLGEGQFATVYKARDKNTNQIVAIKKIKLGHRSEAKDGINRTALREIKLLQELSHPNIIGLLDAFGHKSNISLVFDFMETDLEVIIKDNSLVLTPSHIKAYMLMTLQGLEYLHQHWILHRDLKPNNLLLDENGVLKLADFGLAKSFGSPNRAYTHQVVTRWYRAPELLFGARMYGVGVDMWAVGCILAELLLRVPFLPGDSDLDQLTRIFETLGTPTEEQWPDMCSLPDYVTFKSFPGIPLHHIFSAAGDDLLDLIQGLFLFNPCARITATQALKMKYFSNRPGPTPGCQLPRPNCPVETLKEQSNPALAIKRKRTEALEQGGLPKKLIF
Chain of CDK7 (P51946 whole entry partner, species assumed): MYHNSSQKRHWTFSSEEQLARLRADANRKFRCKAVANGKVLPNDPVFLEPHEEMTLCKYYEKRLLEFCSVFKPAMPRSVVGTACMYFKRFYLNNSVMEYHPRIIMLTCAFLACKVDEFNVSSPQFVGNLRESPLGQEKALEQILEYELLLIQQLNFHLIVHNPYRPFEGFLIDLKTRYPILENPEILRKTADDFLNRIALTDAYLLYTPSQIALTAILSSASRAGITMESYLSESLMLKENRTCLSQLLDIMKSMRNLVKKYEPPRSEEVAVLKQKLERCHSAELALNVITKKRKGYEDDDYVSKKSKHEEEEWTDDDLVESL

SMILES: CC[C@H](CO)Nc1nc(NCc2ccccc2)c2ncn(C(C)C)c2n1 [CYC202, 2-(R)-(1-ethyl-2-hydroxyethylamino)-6-benzylamino-9-isopropylpurine]
- inhibition of CDK7 [1]: inhibit
- effect on cell cycle progression [2]: block cell cycle progression in late G1/early S and in M-phase
- c-JUN mRNA expression ([3]; 50 μM CYC202, 4-48 h): induced to significant levels from 4 h and is maintained at that level for the duration of the experiment
- EGR-1 mRNA expression ([3]; 50 μM CYC202, 4-48 h, two fold cut off): induced from as early as 4 h and is maintained above the two fold cut off for the duration of the experiment
- aurora 1 mRNA expression [3, 6]: markedly inhibited
- cyclin B2 mRNA expression [3, 6]: markedly inhibited
- polo-like kinase 1 mRNA expression [3, 6]: markedly inhibited
- inhibition of CDK9 [4]: inhibit
- c-JUN protein expression ([5]; 50 μM CYC202, 4 h and 12 h, Western blot, phosphorylated, active form): induced at 4 h and 12 h
- EGR-1 protein expression ([5]; 50 μM CYC202, Western blot): transiently induced at 12 h
- c-JUN protein expression ([5]; 50 μM CYC202, after 24 h, Western blot): lost after 24 h
- aurora 1 protein expression [5, 7]: markedly inhibited
- cyclin B2 protein expression [5, 7]: markedly inhibited
- polo-like kinase 1 protein expression [5, 7]: markedly inhibited
